pIC50: −log10 of the molar value. Numbered stars: 1 amine (or outer) side, 2 acyl side, 3 side chain; on linkers, the order of the positions; unused ones are H or OH. Bridge positions count the residues as written; N and C are the ends. Square brackets hold non-standard residues; d marks the D form. Peptide text beside a SMILES is read from it. * marks the point of attachment. hPhe(3-Cl-4-CF3) = N[C@@H](CCc1ccc(C(F)(F)F)c(Cl)c1)C(=O)O; hPhe(3-F,4-CF3) = N[C@@H](CCc1ccc(C(F)(F)F)c(F)c1)C(=O)O; X49 = CN([C@@H](Cc1cccc(OC(F)(F)F)c1)C(=O)[*:2])[*:1]; NMePhe(4-Cl) = CN[C@@H](Cc1ccc(Cl)cc1)C(=O)O; NMePhe(4-Me) = CN[C@@H](Cc1ccc(C)cc1)C(=O)O; NMeNle(6-CHF2) = CN[C@@H](CCCCC(F)F)C(=O)O; NMePhe(4-F) = CN[C@@H](Cc1ccc(F)cc1)C(=O)O; X79 = O=C([C@H](Cc1ccc(Cl)s1)N[*:1])[*:2]; NMeGly(cPent) = CN[C@H](C(=O)O)C1CCCC1; Phe(3-I) = N[C@@H](Cc1cccc(I)c1)C(=O)O; NMeCha = CN[C@@H](CC1CCCCC1)C(=O)O; NMeChg = CN[C@H](C(=O)O)C1CCCCC1; NMeF = CN[C@@H](Cc1ccccc1)C(=O)O; hPhe = N[C@@H](CCc1ccccc1)C(=O)O; NMeD = CN[C@@H](CC(=O)O)C(=O)O; NMeL = CN[C@@H](CC(C)C)C(=O)O; NMeV = CN[C@H](C(=O)O)C(C)C; d(β3hA) = C[C@@H](N)CC(=O)O; NMeS = CN[C@@H](CO)C(=O)O; NMeA = CN[C@@H](C)C(=O)O; NMeAib = CNC(C)(C)C(=O)O; Nle = CCCC[C@H](N)C(=O)O; Piperidide = C1CCN(*)CC1; Pra = C#CC[C@H](N)C(=O)O; Ac5c = NC1(C(=O)O)CCCC1; Aze = O=C(O)[C@@H]1CCN1; Sar = CNCC(=O)O; Propyl = CCC*

In this experiment the test system is Human pancreatic cancer cell line AsPC-1 (G12D mutation Kras). Kind of experiment: AsPC-1 cell growth inhibition (AsPC-1 CGI). It counts as cell-based. The note with it: read-out: AsPC-1 cell growth inhibition, 50% growth inhibitory concentration (IC50 value); 96 hours, CellTiter-Glo, values classified in ranges. (In general: ATP-based viability assays read luminescence as a measure of living cells.)
Experimental: Test compounds were serially dilated with dimethyl sulfoxide, and 200 nL was then dispensed to a U-bottom 96-well plate using Labcyte Echo. […] The cell suspension was dispensed to a. plate containing a test compound at 100 μL per well and incubated at 37° C. in a 5% carbon dioxide gas incubator. 96 hours later, 80 μL of CellTiter-Glo (Promega) was added to each well and fluorescence was measured.
With `CC[C@H](C)[C@@H]1NC(=O)[C@H](C)N(C)C(=O)C[C@@H](C(=O)N2CCCCC2)N(C)C(=O)[C@H](C(C)C)N(C)C(=O)C2(CCCC2)NC(=O)[C@@H]2CCCN2C(=O)[C@H](CCc2ccc(C(F)(F)F)c(Cl)c2)NC(=O)[C@H]2CCCN2C(=O)[C@H](Cc2ccc(F)cc2)N(C)C(=O)[C@@H]2CCCN2C(=O)CN(C)C1=O` [Compound 1725] ([NMeA]I[Sar]P[NMePhe(4-F)][dP][hPhe(3-Cl-4-CF3)]P[Ac5c][NMeV][NMeD]-Piperidide; lactam N-11), the pIC50 was < 6.30.

Take `CC[C@H](C)[C@@H]1NC(=O)[C@H](CC(C)C)N(C)C(=O)C[C@@H](C(=O)N(C)C)N(C)C(=O)[C@H](C2CCCC2)N(C)C(=O)C2(CCCC2)NC(=O)[C@@H](C)NC(=O)[C@H](CCc2ccc(C(F)(F)F)c(Cl)c2)NC(=O)CN(C)C(=O)[C@H](CC2CCCCC2)N(C)C(=O)[C@@H]2CCN2C(=O)[C@H](C)N(C)C1=O` [Compound 191] ([NMeL]I[NMeA][Aze][NMeCha][Sar][hPhe(3-Cl-4-CF3)][dA][Ac5c][NMeGly(cPent)][NMeD]-NMe2; lactam N-11): the pIC50 was < 6.30.

As for `CC[C@H](C)[C@@H]1NC(=O)[C@H](CC(C)C)N(C)C(=O)C[C@@H](C(=O)N2CCCCC2)N(C)C(=O)[C@H](CC(C)C)NC(=O)C(C)(C)N(C)C(=O)[C@H](CCc2ccccc2)NC(=O)[C@H](Cc2cccc(I)c2)NC(=O)CN(C)C(=O)[C@H](Cc2ccc(C)cc2)N(C)C(=O)CN(C)C(=O)CN(C)C1=O` [Compound 13] ([NMeL]I[Sar][Sar][NMePhe(4-Me)][Sar][Phe(3-I)][hPhe][NMeAib]L[NMeD]-Piperidide; lactam N-11), the pIC50 was < 6.30.

Regarding `CC(C)C[C@H]1C(=O)N[C@@H](C)C(=O)N(C)CC(=O)N(C)CC(=O)N(C)[C@@H](CC2CCCCC2)C(=O)N(C)CC(=O)N[C@@H](CCc2ccc(C(F)(F)F)c(Cl)c2)C(=O)N2CCC[C@H]2C(=O)NC2(CCCC2)C(=O)N(C)[C@@H](C2CCCCC2)C(=O)N(C)[C@H](C(=O)N2CCCCC2)CC(=O)N1C` [Compound 1802] ([NMeL]A[Sar][Sar][NMeCha][Sar][hPhe(3-Cl-4-CF3)]P[Ac5c][NMeChg][NMeD]-Piperidide; lactam N-11), the pIC50 is < 6.30.

Take `C#CC[C@@H]1NC(=O)[C@H](Cc2cccc(I)c2)NC(=O)CN(C)C(=O)[C@H](Cc2ccccc2)N(C)C(=O)[C@@H]2CCN2C(=O)[C@H](C)N(C)C(=O)[C@H]([C@@H](C)CC)NC(=O)[C@H](CC(C)C)N(C)C(=O)C[C@@H](C(=O)N2CCCCC2)N(C)C(=O)[C@H](CC(C)C)NC(=O)C(C)(C)N(C)C1=O` [Compound 1313] ([NMeL]I[NMeA][Aze][NMeF][Sar][Phe(3-I)][Pra][NMeAib]L[NMeD]-Piperidide; lactam N-11): the pIC50 was < 6.30.

As for `CC[C@H](C)[C@@H]1NC(=O)[C@H](CC(C)C)N(C)C(=O)C[C@@H](C)NC(=O)[C@H](CC(C)C)N(C)C(=O)C2(CCCC2)NC(=O)[C@@H]2CCCN2C(=O)[C@H](CCc2ccc(C(F)(F)F)c(F)c2)NC(=O)CN(C)C(=O)[C@H](CCCCC(F)F)N(C)C(=O)CN(C)C(=O)CN(C)C1=O` [Compound 1515] (cyclo([Ac5c][NMeL][d(β3hA)][NMeL]I[Sar][Sar][NMeNle(6-CHF2)][Sar][hPhe(3-F,4-CF3)]P)), the pIC50 is < 6.30.

For `CCCC[C@@H]1NC(=O)[C@H](Cc2ccc(Cl)s2)NC(=O)CN(C)C(=O)[C@H](Cc2ccc(Cl)cc2)N(C)C(=O)CN(C)C(=O)CN(C)C(=O)[C@H]([C@@H](C)CC)NC(=O)[C@H](CC(C)C)N(C)C(=O)C[C@@H](C(=O)N2CCCCC2)N(C)C(=O)[C@H](CC(C)C)NC(=O)C(C)(C)N(C)C1=O` [Compound 1318] ([NMeL]I[Sar][Sar][NMePhe(4-Cl)][Sar][X79][Nle][NMeAib]L[NMeD]-Piperidide; lactam N-11), the pIC50 was < 6.30.

On to `CCCOC[C@H]1C(=O)N(C)[C@H](C(=O)N2CCCCC2)CC(=O)N(C)[C@@H](CC(C)C)C(=O)N[C@@H]([C@@H](C)CC)C(=O)N(C)CC(=O)N(C)CC(=O)N(C)[C@@H](CC2CCCCC2)C(=O)N(C)CC(=O)N[C@@H](CCc2ccc(C(F)(F)F)c(Cl)c2)C(=O)N2CCC[C@H]2C(=O)NC2(CCCC2)C(=O)N1C` [Compound 1771] ([NMeL]I[Sar][Sar][NMeCha][Sar][hPhe(3-Cl-4-CF3)]P[Ac5c][NMeS](Propyl)[NMeD]-Piperidide; lactam N-11), for which the pIC50 was < 6.30.

For the molecule `CC[C@H](C)[C@@H]1NC(=O)[C@H](CC(C)C)N(C)C(=O)C[C@@H](C)NC(=O)[C@H](C(C)C)N(C)C(=O)C2(CCCC2)NC(=O)[C@@H]2CCCN2C(=O)[C@H](CCc2ccc(C(F)(F)F)c(Cl)c2)NC(=O)CN(C)C(=O)[C@H](Cc2cccc(OC(F)(F)F)c2)N(C)C(=O)CN(C)C(=O)CN(C)C1=O` [Compound 1573] (cyclo([Ac5c][NMeV][d(β3hA)][NMeL]I[Sar][Sar][X49][Sar][hPhe(3-Cl-4-CF3)]P)), the pIC50 was < 6.30.

The values are drawn from US20240148821A1, “PHARMACEUTICAL USE OF CYCLIC PEPTIDE COMPOUND” (CHUGAI SEIYAKU KABUSHIKI KAISHA, priority 2021, published 2024).
